How the values were obtained:
Assay type in all cases: cell-based
[1] = tested on: mouse ES cell-derived heart organoid; assay: Ca2+ measurement of drug responsiveness in heart organoids; conditions: 1 μM isoproterenol vs absence (control); 15-second recording; Fluo8 fluorescence; FIG. 40
Experimental: The heart organoids were washed twice with PBS and immersed in a 4 μM green fluorescent intracellular calcium indicator Fluo8 AM (acetoxymethyl) or Fluo8 AM/F127, freshly diluted with Tyrode's solution containing 1.8 mM Ca^2+, at 37° C. for 15 to 30 minutes. Thereafter, the heart organoids were washed twice with PBS, treated with 200 μL of Tyrode's solution, mounted, and observed with a fluorescence microscope (manufactured by Keyence Corporation). Specifically, first, Ca^2+ measurement was performed by the method described above (Ca Measurement) in the presence and absence (control) of 1 μM isoproterenol, which is an adrenergic […] agonist. A 15-second recording (movie) was taken, and image analysis was performed to detect the change in the intensity (Y-axis) of the fluorescent signal with time (X-axis).

[2] = tested on: mouse ES cell-derived embryoid bodies; assay: Heart organoid formation from embryoid bodies on LN/ET gel in the presence of FGF protein; conditions: bFGF instead of FGF4; not shown in the figure
Experimental: For the purpose of attempting to mimic such a process of developing a heart in the living body, as shown in the lower stage of FIG. 1, first, mouse ES cells were cultured in a low-binding U-bottom 96-well plate in the absence of leukemia inhibitory factor (LIP) to obtain complete embryoid bodies (EB) (1000 to 5000 cells/embryoid body). […]

[3] = tested on: human iPS cells (253G1) embryoid bodies; assay: Formation of heart and lung organoids from human iPS cells under conditions I to IV; conditions: embryoid bodies on gelated LN/ET complex; at collection (day 13 of culture or later); FIG. 49

Molecule: CC(C)NCC(O)c1ccc(O)c(O)c1 (stereo not drawn) [isoproterenol]
- change of Ca signal cycle in heart organoids [1]: shorten the Ca signal cycle (tachycardia-like)

Molecule: bFGF: fibroblast growth factor 2 (FGF2, bFGF)
- production of beating heart organoid [2]: successfully produced the same beating heart organoid

B1: condition II: additive to medium: FGF4 (30 ng/mL) (protein, UniProt P08620 31-206, looked up)
Fibroblast growth factor 4: APTAPNGTLEAELERRWESLVALSLARLPVAAQPKEAAVQSGAGDYLLGIKRLRRLYCNVGIGFHLQALPDGRIGGAHADTRDSLLELSPVERGVVSIFGVASRFFVAMSSKGKLYGSPFFTDECTFKEILLPNNYNAYESYKYPGMFIALSKNGKTKKGNRVSPTMKVTHFLPRL
- efficiency of producing heart organoids and lung organoids (combined heart and lung, separated heart and lung) [3]: 62.5%
